According to patent EP2860184A1, “Dihydrogenphosphate salt of Tenofovir disoproxil” (Zentiva, k.s., priority 2013, dated 2015):
Structures can show the parent of a compound that is named as a salt.

What was measured:
[1] = Chemical stability stress test (HPLC purity before and after); format: physicochemical; conditions: for Starting HPLC purity (%): before the stress test; for HPLC purity (%) after the stress test: stress conditions: 80°C for 46 hours, 2760 min
Method: Physico-chemical properties (stability and solubility) of Tenofovir disoproxil dihydrogenphosphate were compared with other known salts (Tenofovir disoproxil fumarate, citrate, succinate, L-tartrate, D-tartrate, maleate) prepared according to published procedures. Table 2: Chemical stability of Tenofovir disoproxil and its salts (stress conditions: 80°C for 46 hours)
Column: Zorbax Eclipse XDB C18 RRHD, 100 x 3.0 mm (I.D.) x 1.8 um (Agilent), Run Time: 11.5 min., Injection Volume: 2 µl, Mobile Phase: MFA: 10mM K2HPO4 pH=7,0; MFB: ACN; MFA: 90-40-40-90; t: 0-7-9-9,5; F: 0,5 ml/min; 35°C

[2] = API solid form change during drug product manufacture (wet granulation); format: physicochemical
Text: Moreover, we observed partial the conversion (about 30 %) of Tenofovir disoproxil fumarate (Formula II) in Tenofovir disoproxil hemifumarate (Formula III) during our formulation trials using wet granulation process.
Diffraction patterns were obtained with laboratory X'PERT PRO MPD PANalytical diffractometer, radiation used CuKα (λ = 1.542/Å). Generator settings: excitation voltage 45 kV, anodic current 40 mA. Scan description: scan type - gonio, measurement range 2 - 40º 2θ, step size 0.01º 2θ, step time: 0.5 s. Samples were measured as received on Si plate (zero background holder). Incident beam optics: programmable divergence slits (irradiated length 10 mm), 10 mm mask, 1/4º anti-scatter fixed slit, 0.02 rad Soller slits. Diffracted beam optics: X'Celerator detector, scanning mode, active length 2.122º, 0.02 rad Soller slits, anti-scatter slit 5.0 mm, Ni filter.
Tenofovir disoproxil dihydrogenphosphate (300 g), lactose monohydrate (206 g), microcrystalline cellulose (Avicel pH 101; 50 g), croscarmellose sodium (30 g), polyvinylpyrolidone K-25 (20 g) and magnesium stearate (10 g) were sieved. The mixture was loaded to high shear granulator. Purified water (150 ml) was sprayed on the blend in short time intervals and the mixture was kneaded to granules. The wet granules were dried in an oven at 60°C. The dried granules were milled and sieved. […]

[3] = Apparent solubility and dissolution rate of the salts (Figure 3); format: physicochemical; conditions: compared with other salts, including Tenofovir disoproxil fumarate
Text: The active substance solubility is important for bioavailability of the drug.
• Figure 1: DSC of Tenofovir disoproxil dihydrogenphosphate • Figure 2: 1H NMR of Tenofovir disoproxil dihydrogenphosphate • Figure 3: The apparent solubility and dissolution rate of Tenofovir disoproxil salts • Figure 4: Typical HPLC chromatogram of Tenofovir disoproxil dihydrogenphosphate prepared from Tenofovir disoproxil base • Figure 5: SEM images of Tenofovir disoproxil dihydrogenphosphate prepared from Tenofovir disoproxil • Figure 6: Typical HPLC chromatogram of Tenofovir disoproxil dihydrogenphosphate prepared from Tenofovir disoproxil fumarate • Figure 7: SEM images of Tenofovir disoproxil dihydrogenphosphate prepared from Tenofovir disoproxil fumarate

[4] = in the presence of increased humidity and/or temperature; cited from earlier work

Row | Starting HPLC purity (%) [1] | HPLC purity (%) after the stress test [1] | changes in API solid form ([2]; manufacturing of a drug product) | Solubility [3] | conversion in Tenofovir disoproxil hemifumarate ([2]; formulation trials using wet granulation process) | SMILES | Chemical stability compared with other salts ([1]; compared with fumarate, citrate, succinate, L-tartrate, D-tartrate, maleate, 80°C for 46 hours) | solid form conversion [4]
1 | 99.66% | 97.69% | no changes in API solid form | superior to other salts |  | CC(C)OC(=O)OCOP(=O)(CO[C@H](C)Cn1cnc2c(N)ncnc21)OCOC(=O)OC(C)C [Tenofovir disoproxil dihydrogenphosphate] | the most stable salt of Tenofovir disoproxil | 
2 | 99.04% | 54.16% |  |  |  | CC(C)OC(=O)OCOP(=O)(CO[C@H](C)Cn1cnc2c(N)ncnc21)OCOC(=O)OC(C)C [Tenofovir disoproxil succinate] |  | 
3 | 95.66% | 6.13% |  |  |  | CC(C)OC(=O)OCOP(=O)(CO[C@H](C)Cn1cnc2c(N)ncnc21)OCOC(=O)OC(C)C [Tenofovir disoproxil (free base), 9-[-2-(R)-[[bis[[(isopropoxycarbonyl)oxy]methoxy]phosphinoyl]methoxy]propyl] adenine] |  | 
4 | 99.81% | 4.08% |  |  | about 30% | CC(C)OC(=O)OCOP(=O)(CO[C@H](C)Cn1cnc2c(N)ncnc21)OCOC(=O)OC(C)C [Tenofovir disoproxil fumarate] |  | converts into Tenofovir disoproxil hemifumarate
5 | 99.66% | 25.51% |  |  |  | CC(C)OC(=O)OCOP(=O)(CO[C@H](C)Cn1cnc2c(N)ncnc21)OCOC(=O)OC(C)C [Tenofovir disoproxil D-tartrate] |  | 
6 | 98.10% | 21.12% |  |  |  | CC(C)OC(=O)OCOP(=O)(CO[C@H](C)Cn1cnc2c(N)ncnc21)OCOC(=O)OC(C)C [Tenofovir disoproxil L-tartrate] |  | 
